Experimental data from patent US20020094958A1, “Materials for lysosome modulation and methods of use thereof” (priority 2000, published 2002).
Where a SMILES comes first, the peptide text is derived from it. The star is where a group is joined. Cbz = O=C(OCc1ccccc1)*; CHN2 = [N-]=[N+]=C*

Key:
cathepsin D = assay: Cathepsin D in brain tissue of rats given PADK in drinking water; assay type: in vivo, rat; conditions: adult male rats, approximately 3 to 4 mg/kg/day, seven days, vs untreated group
Method: A further aspect of the invention is a method of modulating lysosomal function in a subject comprising administering to the subject a therapeutically effective amount of at least one inventive lysosome modulating compound or a physiologically acceptable salt thereof. As discussed in more detail later, the lysosome modulating compound benzyloxycarbonyl-Phe-Ala-diazomethylketone (PADK) was added to the drinking water of a first group of 5 adult male rats in an amount corresponding to 3 to 4 mg PADK/kg rat weight/day. […] After seven days, hippocampal and neocortical tissue was isolated from the first and the second groups. The concentration of the lysosomal enzyme cathepsin D in tissue samples was assessed by immunoblot for each of the groups.
The lysosomal modulator benzyloxycarbonyl-Phe-Ala-diazomethylketone (PADK) was added to the drinking water of a first group of 5 adult male rats in an amount corresponding to approximately 3 to 4 mg PADK/ kg rat weight/day. […] After seven days, hippocampal and neocortical tissue was isolated from the first and the second groups. The concentration of cathepsin D in tissue samples was assessed by immunoblot for each of the groups.

[1] = system: hippocampal slice cultures; assay: Continuous PADK application to hippocampal slice cultures over a 20-day period; assay type: cell-based, rat
Excerpt: One aspect of the invention is the use of compounds to modulate lysosomal activity. The modulation of lysosomal activity may be, but is not necessarily, accompanied by an increase in cellular content of lysosomes or lysosomal enzymes. Some inventive lysosomal modulating compounds comprise the previously described formulas (1) M-aan—CH═N═N, (2) M-aan—CH2—O—CO—[2-R-4-R-6-R-Phenyl], (3) M-aan—NH—CH2—CH═N—NH—CO—NH2, (4) M-N ═N—CO—CH2—aan—O—R, and combinations thereof. An example of formula (1) is benzyloxycarbonyl-Phe-Ala-diazomethylketone (PADK). As discussed in more detail later, PADK was applied to hippocampal slice cultures at a continuous concentration of 10 μM over a 20-day period. Fresh media and PADK compound were applied every two days.
Benzyloxycarbonyl-Phe-Ala-diazomethylketone (PADK) was applied to hippocampal slice cultures at a continuous concentration of 10 μM over a 20-day period. Fresh media and PADK compound were applied every two days. […] Thus the inventive lysosomal modulation promotes efficient tau turnover/processing and thereby reduces the ability of abnormally phosphorylated tau to drive non-pathogenic species off of microtubules and into the aggregated state. The non-pathogenic tau molecules would then be more readily available to stabilize microtubules and their transport mechanisms that are important for neuronal functions. Such an inverse correlation between the two forms of tau was also evident in the hippocampus of aged mice, where the change vs. age relationships determined for hyperphosphorylated and non-phosphorylated tau were of equal but opposite slopes. Thus, lysosomal modulators may intervene in the progression of certain types of neuronal atrophy, as well as in the cellular processes that contribute to synaptic loss and the severity of Alzheimer-type dementia.

[2] = system: hippocampal slice cultures; assay: Synaptic marker decline and recovery after chloroquine-induced lysosomal dysfunction in hippocampal slice cultures; assay type: cell-based, rat; conditions: for recovery of the postsynaptic marker GluR1 concentration / recovery of the presynaptic marker synaptophysin concentration: 2-day recovery after 6-day 60 μM chloroquine, vs chloroquine baseline
Method: The method comprises treatment of a neural tissue culture with a lysosomal disruptor (e.g., chloroquine) to initiate lysosome dysfunction in the culture. The culture is treated with a lysosomal disruptor in order to reproduce features characteristic of neurodegeneration, especially those found in Alzheimer's disease (FIG. 7). Preferably, chloroquine is utilized for the lysosomal disruptor due to its broad targeting of pH-dependent enzymes by disrupting the proton gradient of lysosomes. Chloroquine is added to the culture for an extended period of time (the addition time period) to cause gradual cellular changes.
After a predetermined time, the lysosomal disrupter is removed from the culture and synaptic marker concentrations are determined. Subsequently, small amounts of compounds are administered to the neural tissue to modulate lysosomal enzymes. After such treatment, concentrations of synaptic markers in the neural tissue are determined, and the treated and untreated synaptic marker concentrations are compared to determine synaptic recovery (see FIG. 2). Thus by monitoring decline (during disruptor addition) and subsequent increase (during compound addition) of synaptic markers, synaptic degeneration and recovery can be assessed, and the efficacy of the added compounds can be measured.
In order to induce lysosomal dysfunction, 60 μM chloroquine in media was added separately to groups of hippocampal slice cultures. The chloroquine-containing media was changed every two days. Over a 6-day period, separate groups of slices were harvested and synaptic pathology assessed by determining the content of the postsynaptic marker GluR1. […] In a first set of slices the chloroquine was removed from the feeding media after the 6-day addition period and synaptic recovery was assessed after one and two days by measuring GluR1 concentration. […] Although the rate of decline slowed between the first and second day, there was no evidence of synaptic recovery.
In a second set of slices, synaptic recovery was assessed after removal of chloroquine-containing media and a single addition of 10 μM of the lysosomal modulator benzyloxycarbonyl-Phe-Ala-diazomethyiketone (PADK) in media was applied to cultures. As shown by the closed triangles, addition of PADK functioned to increase the GluR1 marker concentration, indicating recovery from synaptic degeneration.
Lysosomal dysfunction was induced by adding 60 μM chloroquine in media to separate groups of hippocampal slice cultures. The chloroquine-containing media was changed every two days for a total of six days. After the 6-day addition period, the chloroquine was removed from the feeding media of individual sets of cultures and presynaptic marker (synaptophysin) and postsynaptic marker (GluR1) concentrations assessed to provide a baseline indicated by the horizontal dotted lines in FIGS. 3A and 3B. 10 μM PADK, 10 μM Ampakine (trademark of Cortex Pharmaceuticals; Irvine, Calif.), and 10 μM memantine (derivatives of which are a trademark of Merz Pharmaceuticals; Germany) were added separately to separate chloroquine-treated cultures to assess their effects on synaptic recovery. After a 2-day recovery period, the separate groups of cultures were harvested and concentrations of presynaptic (synaptophysin) and postsynaptic (GluR1) markers were measured and compared to the reduced levels resulting from the 6-day chloroquine treatment. An increase from the baseline indicates recovery while no difference or further reduction of marker concentrations from the baseline indicates no recovery of synaptic maintenance.

[3] = system: hippocampal slice cultures; assay: Immunoblot of tau species and lysosomal enzymes after chloroquine-mediated lysosomal dysfunction in hippocampal slice cultures; assay type: cell-based, rat
Excerpt: Lysosomal dysfunction was produced in hippocampal slice cultures with chloroquine as in Example 2.

[4] = system: hippocampal slice cultures; assay: Horse-radish peroxidase dendritic transport scoring in hippocampal slice cultures; assay type: cell-based, rat
Method: Lysosomal dysfunction was produced in hippocampal slice cultures with chloroquine as in Example 2. Separate groups of slices were assessed for transport capability by applying horse-radish peroxidase to neurons and scoring its transport from cell bodies along dendrites by two independent observers. […] By monitoring intracellular tau deposition, microtubule stabilization marker (acetylated tubulin), and transport capability, it appears that changes in all of these related parameters contribute to the link between lysosomal modulation and synapse maintenance (FIG. 7).

lysosomal enzyme levels = assay: Upmodulation of lysosomal enzyme levels in hippocampal slice cultures (Table 1); assay type: cell-based, rat; conditions: compounds individually applied to hippocampal slice cultures
Excerpt: Another aspect of the invention is the provision of compounds to increase cellular content (upmodulation) of lysosomal enzymes. As used herein “upmodulation” is an increase in the cellular content of lysosomal enzymes or in the content of lysosomes. Some inventive lysosomal modulating compounds are comprised by the previously described formulas (1) M-aan—CH═N═N, (2) M-aan—CH2—O—CO—[2-R-4-R-6-R-Phenyl], (3) M-aan—NH—CH2—CH N—NH—CO—NH2 and (4) M—N═N—CO—CH2-aan—O—R. Examples of compounds include, formula (1) benzyloxycarbonyl-Phe-Ala-diazomethylketone and benzyloxycarbonyl-Phe-Phe-diazomethylketone; formula (2) is benzyloxycarbonyl-Phe-Lys-2,4,6-trimethylbenzoyloxymethylketone; formula (3) is H-Gly-Phe-Gly-aldehyde semicarbazone; formula (4) is diazoacetyl-DL-2-aminohexanoic acid-methyl ester. When these compounds were individually applied to hippocampal slice cultures, each facilitated the upmodulation of lysosomal enzyme levels (Table 1). Each of the compounds is available from BACHEM Biosciences Inc. of King of Prussia, Pa. Presently, PADK is the preferred compound for modulation of lysosomal activity.
Lysosomal modulating compounds were identified that unexpectedly stimulate lysosomal activity and/or cellular feedback processes for the upregulation of lysosomal hydrolase levels. […] Thus the inventive lysosomal modulation promotes efficient tau turnover/processing and thereby reduces the ability of abnormally phosphorylated tau to drive non-pathogenic species off of microtubules and into the aggregated state. The non-pathogenic tau molecules would then be more readily available to stabilize microtubules and their transport mechanisms that are important for neuronal functions.

[5] = 10 μM continuous, 20-day period
[6] = 2 days PADK following 6-day chloroquine treatment
[7] = PADK for two days following 6-day chloroquine period
[8] = 6 days chloroquine then 2 days media alone, vs untreated control

C[C@H](NC(=O)[C@H](Cc1ccccc1)NC(=O)OCc1ccccc1)C(=O)C=[N+]=[N-] [(1), benzyloxycarbonyl-Phe-Ala-diazomethylketone]
lysosomal enzyme (cathepsin D) concentration in hippocampal and neocortical tissue (cathepsin D): significant increases
cathepsin D levels [1, 5]: stably enhanced
non-pathogenic tau isoforms [1, 5]: gradual increase
pathogenic hyperphosphorylated tau species concentration [1, 5]: gradually reduced
synaptic marker (GluR1) [1, 5]: without any reduction
concentration of the lysosomal enzyme cathepsin D ([1]; 10 μM, after 5 days of treatment): not significantly altered
recovery from synaptic degeneration (GluR1) ([2]; Example 2, single 10 μM addition after 6-day chloroquine, one day): significant recovery
recovery of GluR1 level ([2]; Example 2, single 10 μM addition after 6-day chloroquine, two days): 71%
recovery of the postsynaptic marker GluR1 concentration ([2]; Example 3, 10 μM): 70%
recovery of the presynaptic marker synaptophysin concentration ([2]; Example 3, 10 μM): ~35%
55-69 kDa tau species [3, 6]: reduction
cathepsin D [3, 6]: robust upmodulation
levels of lysosomal enzymes cathepsin B (CB), cathepsin D (CD), cathepsin S (CS) ([3]; FIG. 5 immunoblots): enhanced levels
control levels of tau isoforms ([3]; PADK addition alone (no chloroquine)): without altering
restoration of transport capability [4, 7]: significant restoration
transport failure [4, 7]: did not exhibit transport failure
upmodulated cathepsin types (lysosomal enzyme levels): B, D, S

[N-]=[N+]=CC(=O)[C@H](Cc1ccccc1)NC(=O)[C@H](Cc1ccccc1)NC(=O)OCc1ccccc1 [(2), benzyloxycarbonyl-Phe-Phe-diazomethylketone] (Cbz-Phe-Phe-CHN2)
upmodulated cathepsin types (lysosomal enzyme levels): B, D

NCC(=O)NC(Cc1ccccc1)C(=O)NCC=NNC(N)=O (stereo not drawn) [(4), H-Gly-Phe-Gly-aldehyde semicarbazone]
upmodulated cathepsin types (lysosomal enzyme levels): B, D

CCN(CC)CCCC(C)Nc1ccnc2cc(Cl)ccc12 (centres unmarked) [chloroquine, reference compound]
GluR1 concentration during disruptor exposure ([2]; 60 μM, 6-day exposure period): decreased
cathepsin D (CD) [3, 8]: small compensatory increase
potentially pathogenic tau species of 55-69 kDa [3, 8]: enhanced levels
transport capacity ([4]; 6-day chloroquine followed by 2 days media alone, vs untreated slices): adversely affected

CC12CC3CC(C)(C1)CC(N)(C3)C2 [memantine, reference compound]
recovery of the postsynaptic marker GluR1 concentration ([2]; Example 3, 10 μM): No statistically significant recovery
recovery of the presynaptic marker synaptophysin concentration ([2]; Example 3, 10 μM): No statistically significant recovery
GluR1 level change vs baseline ([2]; Example 3, 10 μM, 2-day recovery period, FIG. 3A): small decrease
